From patent US8853274B1, “Compositions and methods for targeting glioblastomas cells” (Vanderbilt University, priority 2011, dated 2014) come the findings set out here.

The subject of assay [1] is T4302 CD133+ cells. As to the kind of experiment: Cell growth / viability on day 5 (CellTiter-Glo). The settings on record: 100 nM; with or without 3 Gy radiation. The format is cell-based, human. How it is done: (A, B) T4302 CD133+ cells were treated with 100 nM RO4929097 (GSI) and/or 100 nM tipifarnib (FTI) for 4 hours prior to 3 Gy radiation. (A) Cell growth on day 5 and (B) caspase 3/7 activation on day 3 were determined as described in FIG. 4. #: p<0.001 by one-way ANOVA, combo vs. single agents. (C) The effects of GSIs and FTI against growth of T4302 CD133− cells were determined as described in panel A. (D, E) T4302 CD133+ cells were treated with GSI, FTI, or a 1:1 mixture at different concentrations (ranging from 3000 nM to ˜0.5 nM, 1:3 dilution)±3 Gy radiation. Cell viability was determined at 5 days after treatment in comparison to vehicle-treated groups. […] (F) T4302 CD 133+ cells were treated by GSI±FTI with a 2-fold dilution. Neurospheres were countered on day 10, and normalized to the vehicle-treated group.
GSC sensitivity to drug(s) was primarily measured as inhibition of cell viability (survival). Cells were treated with drugs alone or in combination±3-Gy radiation at indicated concentrations. Cell viability is determined by CellTiter-Glo kit (Promega) after 5-day incubation. IC50 values are calculated by the GraphPad Prism5 software.

The test system of assay [2] is Ras. As to the kind of experiment: Active Ras pull-down assay in T4302 CD133+ cells. The format is cell-based, human. As to conditions: 200 nM; after radiation exposure. How it is done:
(A) T4302 CD133+ cells were infected with NICD2-lentivirus and treated with 2 μM DAPT±3 Gy radiation. Cells were collected at 24 or 48 hours after treatment. Protein levels of phospho-s473 Akt, total Akt and actin were blotted. (B) Control CD133+ cells or NICD2-expressing cells were pre-treated with 10 μM PI3K inhibitor (LY294002), or 50 μM Akt inhibitor (SH-6) for 4 hours prior to radiation. Relative caspase 3/7 activity was determined at 48 hours after radiation as described in FIG. 3C. (C) T4302 CD133+ cells were treated with 200 nM RO4929097 (GSI)±3 Gy. Active Ras levels were determined by a Ras Pull Down Assay kit using a pan-Ras antibody (Pierce). (D, E) T4302 cells were infected with H-Ras V12-lentivirus. Cells were treated with 200 nM RO4929097 (GSI)±3 Gy. Growth of cells was determined at day 5 after treatment (CellTiter-Glo assay, Promega). Relative caspase 3/7 activity was determined at 48 hours after treatment. […] Equal amounts of protein were resolved by SDS-PAGE and analyzed by immunoblotting with indicated antibodies. *: p<0.05 by Student's t-test.
Potential mechanisms that mediate Notch-dependent Akt activation were examined next. […] Using an active Ras pull-down assay kit (Pierce), the activation status of Ras signaling can be determined as the amount of Ras-GTP co-purified with a GST-tagged Ras-binding domain of c-Raf. […]

Consider `CC(C)(C(=O)NCC(F)(F)C(F)(F)F)C(=O)N[C@@H]1C(=O)Nc2ccccc2-c2ccccc21` [RO4929097], for which the “degree of growth inhibition after 5-day treatment, in words” value in assay [1] was “weaker growth inhibition”. The “active Ras levels” value in assay [2] is on record as “decreased active Ras levels”.
